Test results as given in patent publication US8802723B2, “Metabolic syndrome-improving agent and medicine, supplement, functional food and food additive containing the same” (ARKRAY, Inc., priority 2005, dated 2014).

System: adiponectin mRNA
Assay: adiponectin mRNA expression in differentiated 3T3-L1 adipocytes (Light Cycler)
Format: cell-based
Details: 3T3-L1, 7 days after differentiation induction, non-treatment control = 100, average ± standard error
Experimental: Differentiation Induction Medium (0.25 μM DEX, 0.5 mM MIX, 10 μg/mL Insulin/10% FBS/DMEM)
55 mL of FBS (fetal bovine serum (manufactured by GIBCO)) was added to 500 mL of DMEM (manufactured by SIGMA) so as to prepare 10% FBS/DMEM. To this 10% FBS/DMEM, 138.75 μL of 1 mM DEX (dexamethasone)/DMSO (manufactured by Nacalai Tesque, Inc.) and 555 μL of 10 mg/mL insulin/PBS (manufactured by SIGMA) were added. Incidentally, the insulin/PBS was obtained by adding 1N HCl to PBS in advance so as to make the solution acidic enough to allow insulin dissolution and then dissolving insulin. […]
Next, culture preadipocytes 3T-L1 were thawed, inoculated in a 100 mm dish and cultured until 3T3-L 1 cells reached about 80% confluence. […] 7 days after the initiation of the differentiation induction, mRNA was extracted using Sepasol(R)—RNA I super (manufactured by Nacalai Tesque, Inc.), and the mRNA expression amounts of 36B4, aP2 and adiponectin, which were indicators of an early period of adipocyte differentiation, were measured using Light Cycler™. Also, the medium 7 days after the differentiation induction was taken in an amount of 1 mL from each well, and the amount of adiponectin in the medium supernatant was measured using a mouse/rat adiponectin ELISA kit (trade name) (manufactured by Otsuka Pharmaceutical Co., Ltd.). […]

## CC(C)=CCC/C(C)=C/COc1ccc2ccc(=O)oc2c1 [Aurapten, aurapten]
Aurapten 1 μM
  Adiponectin mRNA expression amount (ratio to 36B4): 144.5 ± 26.7
Aurapten 5 μM
  Adiponectin mRNA expression amount (ratio to 36B4): 161.4 ± 40.2
